This note sets out measurements from PubChem BioAssay (NCI).

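Five compound concentrations were applied to cells in 96-well plates for 48 hours; endpoints were derived by simple linear interpolation of the resulting dose-response curve. GI50: concentration for 50% inhibition of growth. TGI: concentration producing complete growth inhibition.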

Among the test systems are IGROV1 ovarian; HOP-62 NSCLC; PC-3 prostate; HS 578T breast; HCT-116 colon; SR leukemia; SK-MEL-5 melanoma; K-562 leukemia; U251 CNS; SN12C renal.
Experiment in all cases: DTP human tumour cell line panel, 48 h

A word on the GI50: it is the concentration at which growth is held to half of that of the control. In general, TGI refers to the concentration at which net growth stops. A higher TGI goes with lower sensitivity of the cells. On to `CCN(CC)c1ccc(CNc2cc(C)nc3ccc(OC)cc23)cc1`, for which the GI50 in the test with IGROV1 ovarian is 4.05 µM; in the test on HOP-62 NSCLC, 7.24 µM; in the test on PC-3 prostate, 2.82 µM; in the test with HS 578T breast it was 2.32 µM; with HCT-116 colon, 2.34 µM; in the test with SR leukemia it was 1.87 µM. For the same molecule, the GI50 in the test with SK-MEL-5 melanoma was 1.3 µM; in the test with K-562 leukemia it was 1.37 µM; in the test with U251 CNS, 2.04 µM; in the test with SN12C renal, 5.33 µM. Besides, the total growth inhibition concentration (TGI) was found to be 19.2 µM in the test with IGROV1 ovarian; 21 µM with HOP-62 NSCLC; 13.1 µM in the test with PC-3 prostate; 6.73 µM in the test with HS 578T breast; 7.76 µM in the test with HCT-116 colon; 4.56 µM in the test on SR leukemia. Besides, the total growth inhibition concentration (TGI) with SK-MEL-5 melanoma came out at 2.72 µM; with K-562 leukemia, 4.34 µM; in the test on U251 CNS, 4.3 µM; in the test on SN12C renal, 20.6 µM.
In the case of `Oc1ccccc1/C=N/Nc1nc2ccccc2s1`, the GI50 with IGROV1 ovarian was 2.77 µM; in the test on HOP-62 NSCLC, 5.56 µM; with PC-3 prostate it was 11 µM; with HS 578T breast, 8.84 µM; in the test on HCT-116 colon it was 2.85 µM; in the test with SR leukemia it was 7.71 µM. Also, the GI50 with SK-MEL-5 melanoma was 7.36 µM; in the test with K-562 leukemia, 6.48 µM; in the test on U251 CNS, 8.1 µM; in the test on SN12C renal, 22.9 µM. Further, the TGI is greater than 100 µM in the test with IGROV1 ovarian; greater than 100 µM in the test on HOP-62 NSCLC; greater than 100 µM in the test on PC-3 prostate; 58 µM with HS 578T breast; greater than 100 µM in the test on HCT-116 colon; greater than 100 µM with SR leukemia. For the same molecule, the total growth inhibition concentration (TGI) in the test on SK-MEL-5 melanoma, in the test with K-562 leukemia, in the test on U251 CNS and in the test with SN12C renal was greater than 100 µM in each case.
For the molecule `COc1ccc2c(c1)[n+]([O-])c(/C(C)=N/NC(N)=S)c(C)[n+]2[O-]`, the TGI with IGROV1 ovarian was greater than 100 µM; in the test on HOP-62 NSCLC, greater than 100 µM; in the test with PC-3 prostate, greater than 100 µM; in the test with HS 578T breast, greater than 100 µM; with HCT-116 colon, greater than 93.2 µM; with SR leukemia, 61.5 µM. Also, the TGI is greater than 69.1 µM in the test on SK-MEL-5 melanoma, greater than 100 µM in the test on K-562 leukemia, greater than 100 µM in the test on U251 CNS and greater than 100 µM in the test with SN12C renal.
As for `O=C(/C=C/c1ccccc1)Nc1ncc(Cc2ccccc2)s1`, the GI50 is 0.491 µM in the test with IGROV1 ovarian; 0.398 µM with HOP-62 NSCLC; 0.275 µM in the test on PC-3 prostate; 0.287 µM in the test with HS 578T breast; 0.141 µM with HCT-116 colon; 0.0501 µM with SR leukemia. Also, the GI50 is 0.196 µM with SK-MEL-5 melanoma, 0.0624 µM with K-562 leukemia, 0.271 µM with U251 CNS and 0.597 µM with SN12C renal. The TGI in the test on IGROV1 ovarian is greater than 64.5 µM; in the test with HOP-62 NSCLC it was greater than 39 µM; with PC-3 prostate, greater than 100 µM; in the test with HS 578T breast it was 20.8 µM; in the test with HCT-116 colon it was greater than 33.4 µM; in the test on SR leukemia, 10.2 µM. The concentration for total growth inhibition (TGI) was 10.1 µM in the test with SK-MEL-5 melanoma, greater than 37.1 µM in the test with K-562 leukemia, 6.25 µM in the test on U251 CNS and greater than 52 µM in the test on SN12C renal.
For the molecule `C=C(C)[C@@H]1CC[C@]2(C(=O)N3CCN(C)CC3)CC[C@]3(C)[C@H](CC[C@@H]4[C@@]5(C)C/C(=C/c6ccncc6)[C@H](O)C(C)(C)[C@@H]5CC[C@]43C)[C@@H]12`, the GI50 was 6.62 µM in the test with IGROV1 ovarian; 10.1 µM with HOP-62 NSCLC; 2.75 µM in the test with PC-3 prostate; 11.6 µM in the test with HS 578T breast; 1.6 µM in the test with HCT-116 colon; 2.72 µM with SR leukemia. The GI50 in the test on SK-MEL-5 melanoma was 5.98 µM; with K-562 leukemia, 2.79 µM; with U251 CNS, 5.64 µM; in the test with SN12C renal it was 6.22 µM. The TGI with IGROV1 ovarian was 37.7 µM; with HOP-62 NSCLC it was 24.7 µM; in the test with PC-3 prostate, 16.7 µM; with HS 578T breast, greater than 100 µM; in the test on HCT-116 colon it was 4.46 µM; with SR leukemia, 10.2 µM. In addition, the figures for the TGI with SK-MEL-5 melanoma, in the test with U251 CNS and in the test with SN12C renal were 18.5 µM, 19.6 µM and 22.3 µM, respectively.
On to `COc1ccccc1CN=C1NC(=O)/C(=C/c2ccc3ncccc3c2)S1`, for which the GI50 in the test with IGROV1 ovarian is 6.56 µM; with HOP-62 NSCLC, 7.64 µM; in the test with PC-3 prostate, 18.5 µM; in the test with HS 578T breast, 6.61 µM; in the test with HCT-116 colon, 3.1 µM; in the test on SR leukemia, 1.87 µM. In addition, the GI50 was 12.4 µM with SK-MEL-5 melanoma, 8.4 µM in the test with K-562 leukemia, 4.51 µM with U251 CNS and 7.8 µM in the test with SN12C renal. For the same molecule, the concentration for total growth inhibition (TGI) was greater than 19.4 µM with IGROV1 ovarian; greater than 20.2 µM in the test with HOP-62 NSCLC; greater than 25 µM in the test on PC-3 prostate; greater than 24.1 µM in the test with HS 578T breast; greater than 25 µM in the test with HCT-116 colon; greater than 17.9 µM in the test on SR leukemia. The concentration for total growth inhibition (TGI) in the test on SK-MEL-5 melanoma was greater than 21.5 µM; in the test with K-562 leukemia, greater than 25 µM; in the test on U251 CNS, greater than 16.1 µM; with SN12C renal, greater than 25 µM.
On to `COc1ccc(C2CC(c3ccc4ccccc4c3)=NN2/C=C2\SC(=S)N(NC(=O)Cc3ccccc3Nc3c(Cl)cccc3Cl)C2=O)cc1` (centres undefined), for which the GI50 with IGROV1 ovarian is 0.588 µM; in the test with HOP-62 NSCLC, 0.958 µM; in the test on PC-3 prostate it was 0.714 µM; in the test with HS 578T breast it was 0.415 µM; in the test on HCT-116 colon, 0.482 µM; with SR leukemia, 0.309 µM. The GI50 is 0.484 µM in the test with SK-MEL-5 melanoma, 0.402 µM in the test with K-562 leukemia, 0.402 µM in the test on U251 CNS and 0.647 µM in the test on SN12C renal. In addition, the concentration for total growth inhibition (TGI) in the test with IGROV1 ovarian was greater than 42 µM; in the test with HOP-62 NSCLC it was greater than 49.9 µM; with PC-3 prostate, greater than 54 µM; in the test on HS 578T breast, greater than 37.6 µM; in the test on HCT-116 colon, greater than 39.6 µM; in the test with SR leukemia, greater than 100 µM. Further, the TGI in the test with SK-MEL-5 melanoma is greater than 36.9 µM; in the test on K-562 leukemia, greater than 100 µM; in the test with U251 CNS it was greater than 36.7 µM; with SN12C renal it was greater than 48.9 µM.
Turning to `Cc1cc(C)nc(NS(=O)(=O)c2ccc(Nc3nc4nc(NCc5ccccc5)nc(-c5ccc(O)cc5)c4c(=O)[nH]3)cc2)n1`, the GI50 with IGROV1 ovarian is 0.663 µM; in the test on HOP-62 NSCLC it was greater than 100 µM; in the test on PC-3 prostate it was 19.8 µM; in the test with HS 578T breast it was 14.6 µM; in the test with HCT-116 colon, 23.6 µM; with SR leukemia it was 17.9 µM. In addition, the GI50 in the test on SK-MEL-5 melanoma was 25.7 µM; with K-562 leukemia it was 4.84 µM; in the test with U251 CNS, 36.7 µM; in the test with SN12C renal it was 25.1 µM. The concentration for total growth inhibition (TGI) with IGROV1 ovarian is 7.52 µM; in the test on HOP-62 NSCLC it was greater than 100 µM; in the test with PC-3 prostate, greater than 100 µM; in the test with HS 578T breast it was 88.6 µM; in the test on HCT-116 colon, greater than 100 µM; in the test with SR leukemia it was 81.3 µM. For the same molecule, the total growth inhibition concentration (TGI) in the test with SK-MEL-5 melanoma, in the test with K-562 leukemia, with U251 CNS and with SN12C renal was greater than 100 µM each time.
